Literature values, collected in patent US5596019A, “N-acyl-cycloalkylamine derivatives as melatonergics” (Bristol-Myers Squibb Company, priority 1995, dated 1997).

Experiments:
[1] = system: circadian rhythms; settings: exogenous melatonin, rats

oral bioavailability: often low and variable
SMILES: COc1ccc2[nH]cc(CCNC(C)=O)c2c1 [melatonin, N-acetyl-5-methoxytryptamine]
synchronization of circadian rhythms [1]: synchronize circadian rhythms in rats
